Test: physchem
Conditions: octan-1-ol/water

SMILES	logD (pH 7.4, LogD7.4)	logD (pH 7.4)
CCC(CC)NC(=O)c1cnn(Cc2ccccc2)c1NS(=O)(=O)c1ccc(C)cc1	1.52	
N#Cc1cc(S(=O)(=O)NCC(c2ccccc2)N2CCCCCC2)ccc1F (stereo not drawn)	2.71	
O=C(O)c1ccc(Nc2ncc(Br)c(Nc3ccccc3)n2)cc1	1.65	
O=C(NC1Cc2ccccc2N(CC(CO)CO)C1=O)c1cc2cc(Cl)ccc2[nH]1 (stereo not drawn)	3.64	
O=c1ccoc2ccccc12 [CHROMONE]	1.4	
COc1cc(N2CCN(C(C)=O)CC2)ccc1Nc1ncc(Cl)c(-c2cnc3c(F)cc(F)cn23)n1	3.2	
COC(=O)[C@@H]1[C@H]2C[C@H]3c4[nH]c5ccccc5c4CCN3C[C@@H]2CC[C@@H]1O [YOHIMBINE]	1.65	
Oc1ccc(CCc2ccc(O)cc2)cc1	3.3	
COc1ccccc1OCC(O)CO (stereo not drawn) [GUAIFENESIN]	0.24	
Cc1ccc(-c2nccn2C)cc1NC(=O)c1ccc(OCc2ccccn2)cc1	2.83	
C[C@@H](NC(=O)[C@H]1CCCCN1)c1ccc(Nc2ncc3cc(-c4ccncc4)ccc3n2)cc1	2.15	
Brc1cc(Br)cc(COC[C@H](c2ccccc2)N2CCNCC2)c1	2.8	
OC(CCN1CCCCC1)(c1ccccc1)C1CCCCC1 (stereo not drawn) [TRIHEXYPHENIDYL]	2.68	
O=c1[nH]c2cc(Cl)c(Cl)c([N+](=O)[O-])c2[nH]c1=O [LICOSTINEL]	0.21	
O=[N+]([O-])c1ccc2c(c1)N(c1cccc[n+]1[O-])CC(C(F)F)(C(F)F)O2	3.2	
O=C(Nc1ccc(C(F)(F)F)c(Cl)c1)N1CCN(C[C@@H]2CCCN(C3CC3)C2)CC1	4.06	
COc1cc(F)ccc1-c1cccc(CNC2CCCC2)c1	2.29	
O=C(NC[C@@H](O)CN1CCC(Oc2ccc(Cl)c(Cl)c2)CC1)c1cn2cc(F)ccc2n1	3.33	
CCCc1c(C(=O)Nc2cc(C)on2)cnn1-c1ccccc1	3.7	
CC(C)(C)c1cc(O)n2nc(N)nc2n1	-0.2	
COCCC(=O)N(C)c1ccc(Nc2ncc3cc(-c4ccncc4)ccc3n2)cc1	3.23	
COC(=O)COc1ccc(OCCNCC(O)COc2ccccc2)cc1 (stereo not drawn)	1.54	
COc1cc2ncc(C(N)=O)c(Nc3ccccc3Cl)c2cc1OC	2.89	
Cc1ccc(S(=O)(=O)N2CCN(C(=O)c3ccco3)CC2)cc1	2.17	
COc1ccc(-c2nc3c(NCCCNC(=O)c4ccccc4)c(Br)cnc3[nH]2)cc1	0.25	

SMILES	logD (pH 7.4, LogD7.4)	logD (pH 7.4)
N#Cc1ccccc1Oc1ccc(C(=O)NCc2ccncc2)cc1	2.57	
Cc1ccn2c(-c3ccnc(N)n3)c(C)nc2c1	2.39	
Cc1cnc2c(N[C@H](C)CO)nc(SCc3cccc(F)c3F)nc2n1	3.55	
Cc1cc(NC(=O)Nc2ccc(Cl)cc2)n(-c2ccccc2)n1	4.15	
Cc1ccc(NC(=O)c2cccc(N(C)C)c2)cc1NC(=O)c1ccc(O)cc1	2.65	
COc1ccc(C(=O)Nc2cc(NC(=O)c3cccc(N(C)C)c3)ccc2Br)cc1OC	3.49	
Oc1ccc(C(c2ccc(O)cc2)C(Cl)(Cl)Cl)cc1	3.86	
COCCC(=O)NC(C)c1ccc(Nc2ncc3cc(-c4ccncc4)ccc3n2)cc1 (stereo not drawn)	2.98	
COCCOc1ccc(C(=O)Nc2cc(NC(=O)c3cccc(N(C)C)c3)ccc2C)cc1	2.74	
Cc1ccc(-c2c[nH]cn2)cc1NC(=O)c1ccc(OCc2ccccn2)cc1	2.81	
O=C1COc2ccc(CNC3CCN(CCN4C(=O)COc5ccc(O)cc54)CC3)nc2N1		0.52
Cc1ncc(-c2ccnc(Nc3ccc(C#N)cc3)n2)n1C(C)C	3.62	
Cc1ncc(-c2nc(Nc3ccc(C(=O)NCCN(C)C)c(F)c3)ncc2F)n1C(C)C	2.26	
CN[C@@H](C)C(=O)N[C@H](C(=O)N[C@H]1CCCN(CCc2ccc(C)cc2)C1)C(C)(C)C	2.05	
CCN(C)C(=O)c1ccc([C@H](c2cccc(NC(=O)C3CCC3)c2)N2CCN(Cc3cccnc3)CC2)cc1		3.27
CCCCN(CCNC[C@H](O)c1ccc(O)c2[nH]c(=O)sc12)C(=O)CCOCCc1ccccc1	2.51	
Oc1cc(-c2ccccc2)nc2ccccc12	2.54	
O=[N+]([O-])c1ccc2[nH]c(-c3ccccn3)nc2c1	2.8	
CC(C)N(C(=O)C(c1cccnc1)C(CNC(=O)NCc1ccccc1F)c1ccccc1)C(C)C (stereo not drawn)	4.2	
CC(=O)Nc1ccc(CC(=O)N(C)C2CCN(CCC(c3ccccc3)c3ccccc3)CC2)cc1	2.9	
CC(C)CCCC(C)/N=c1\ccn(Cc2ccccc2)c2cc(Cl)ccc12 (stereo not drawn)	1.58	
Cc1ccc(CN2C(=O)CCSc3ccc(Cl)cc32)cc1		3.7
Oc1cc(-c2ccccc2)nc2ncnn12	-0.21	
Nc1ccnc(-c2cccnc2)n1	0.44	
COc1cccc(Nc2ncnc3cc(OC)c(OC)cc23)c1	3.1	

SMILES	logD (pH 7.4, LogD7.4)	logD (pH 7.4)
Nc1ncnc2sccc12	1.19	
O=C1CCOc2nc(/C=C/c3ccccc3)ccc21	3.2	
Cc1ccc(-c2cc(C(=O)N3CCOCC3)c3cc(C)ccc3n2)cc1		3.6
COc1cc(F)ccc1-c1cncc(CNC[C@@H]2CCCO2)n1	2	
C[C@H]1O[C@@H](n2cnc3c(N)nc(OCC4CC(F)(F)C4(F)F)nc32)[C@H](O)[C@@H]1O (stereo partly drawn)	1.42	
O=S(=O)(Nc1cc(F)ccc1F)c1ccc(Cl)cc1	2.9	
Cc1ccc(CN2[C@@H]3CC[C@H]2C[C@@H](Oc2cccc(C(N)=O)c2)C3)s1		2.39
NC(=O)c1cccc(O[C@H]2C[C@H]3CC[C@@H](C2)N3CC2CCCCC2)c1		1.55
CC(C)C(NC(=O)Cn1c(-c2ccccc2)ccc(N)c1=O)C(=O)C(F)(F)F (stereo not drawn)	1.74	
Oc1ccc2[nH]c(CN3CCC(Cc4ccc(F)cc4)CC3)nc2c1	3.8	
COc1ccc(-c2cccc3c(N)c4c(nc23)CN(C2CCC2)C4=O)c(C)n1	3.92	
CC(C)c1ccc2oc3nc(N)c(C(=O)O)cc3c(=O)c2c1 [AMLEXANOX]	1.1	
O=C1CC(c2ccc(O)cc2)Oc2cc(O)cc(O)c21 (stereo not drawn)		2.6
Nc1c2c(nc3ccc(Br)cc13)N(c1ccccc1)CC2	3.12	
Cc1cc(C)c(C(=O)N[C@@H](Cc2ccc(OCCCNc3ccccn3)cc2)C(=O)O)c(C)c1	0.49	
Cn1c(N)nc(CCc2ccc3cc[nH]c3c2)cc1=O	2.1	
CC1CC(CN)CC(CO)C1 (stereo not drawn)	-1.4	
COC(=O)c1ccc(CC(=O)N(C)C2CCN(CCC(c3ccccc3)c3ccccc3)CC2)cc1	4	
COc1cc2ncnc(Nc3ccncc3)c2cc1OC	2.22	
CN1CCN(CC(=O)Nc2c(C#N)cnn2-c2ccccc2)CC1	0	
Cn1c(-c2ccncc2)cc2onc(-c3ccccc3)c2c1=O	2.61	
OCC[C@]1(c2ccc(Cl)c(Cl)c2)CCCNC1	0.61	
O=C(c1cc2cc(Cl)ccc2[nH]1)N1CCNCC1	1.65	
COc1cc2ncnc(Nc3cc(NC(=O)c4ccnc(N5CCOCC5)c4)ccc3C)c2cc1OCCN1CCCC1	2.7	
O=C(O)Cc1csc(-c2ccc(Cl)cc2)n1 [FENCLOZIC ACID]	-0.22	

SMILES	logD (pH 7.4, LogD7.4)	logD (pH 7.4)
c1ccc(-c2cn3ccccc3n2)cc1	2.9	
N#Cc1cccc(-c2cccc(-c3nn[nH]n3)c2)c1	0.7	
CC(=O)NC(C)c1ccc(Nc2ncc3cc(-c4ccncc4)ccc3n2)cc1 (stereo not drawn)	3.1	
Cc1cc(CNc2ncc(Cl)c(Nc3cc(C)[nH]n3)n2)on1	2.68	
COc1cc2nnc(C(N)=O)c(Nc3ccc(C)cc3F)c2cc1N1CCN(C)CC1	2.36	
Nc1nonc1C(=NO)Nc1ccc(F)c(Cl)c1	2.7	
c1ccc(CCNCc2ccccc2)cc1		1.65
CC1(C)CCC(NC(=O)[C@@H](N)CCC(=O)O)CC1 [NEBOGLAMINE]		-0.27
CNC1(C)C2CCC(C2)C1(C)C (stereo not drawn) [MECAMYLAMINE]	-0.84	
Cc1cc(O[C@H]2C[C@H]3CC[C@@H](C2)N3Cc2ccccc2)cc(C(N)=O)c1		2.08
N=C(N)Nc1ccc(C(=O)Oc2ccc(Cl)cc2)cc1	0.7	
COc1ncc(-c2cccc3c2C[C@H](NC(=O)c2ccc(OCC(F)(F)F)nc2)CO3)cn1	4.3	
CCc1ccccc1-c1ccc(-c2nc3ccncc3c(O)c2C#N)cc1	3.5	
CC(=O)NC[C@H]1CN(c2ccc(N3Cc4cccnc4C3)c(F)c2)C(=O)O1	2.88	
Cc1ccc(-c2ncc(C)n2C)cc1NC(=O)c1ccc(OCc2ccccn2)cc1	2.67	
CC[C@H](NC(=O)c1c([S+](C)[O-])c(-c2ccccc2)nc2c(F)cccc12)c1ccccc1 (stereo partly drawn)	2.84	
CC1(c2ccc(Cl)c(Cl)c2)CC(=O)NC(N)=N1 (stereo not drawn)	1.59	
C(=C\c1c(-c2ccccc2)nc2sccn12)/c1ccncn1	3.4	
O=C(CC12CC3CC(CC(C3)C1)C2)Nc1cccc2ncccc12	3.83	
CCNC1=Nc2ccccc2C(c2ccccc2)=NC1c1cccs1 (stereo not drawn)		3.98
Nc1nc(-c2ccccc2)nn1Cc1ccccc1	1.91	
CC(C)C(NC(=O)Cn1c(-c2cccnc2)ccc(NC(=O)OCc2ccccc2)c1=O)C(=O)C(F)(F)F (stereo not drawn)	3.05	
COc1ccc(C=C2SC(=O)NC2=O)cc1OC		1.17
